Activity calls are given as the source filed them. The rule behind the calls is not given here.

For orientation: CC50 means the concentration that lowers cell viability or growth by half. Read a high CC50 as better tolerance by the cells. As a reminder, the IC50 is the concentration at which inhibition is half-maximal.

The first series has as its system MCF7. Nature of the series: Cytotoxicity against human MCF7 cells assessed as cell growth inhibition at 50 uM incubated for 48 hrs by CCK-8 assay. The series is classed as functional, cell-based.
Details: not given
A general note: Formazan colour is commonly taken as a measure of viable cells.
As to `C=C(CO)[C@H]1CC[C@@]2(C)C1=CC(=O)[C@@]1(C)C[C@H]3O[C@@]21CC(=O)[C@H]3C`, the outcome was inactive.

Regarding `C=C(C)[C@H]1CC[C@]2(C)[C@@]34C[C@@H](O)[C@@H](C)[C@@H](C[C@]3(C)C(=O)C[C@@]12O)O4`, the outcome was inactive.

`C=C(C)[C@H]1CC[C@]2(C)C3=CC(=O)C(C)=CC[C@]3(C)C(=O)C[C@@]12O`: the result was inactive.

For the compound `C=C(C)[C@H]1CC[C@@]23CO[C@@]4(O)C(=O)[C@@H](C)CC[C@](C)(C(=O)C[C@@]12O)[C@@]34O`, the result was inactive.

With `C=C(C)[C@H]1[C@H](O)C[C@]2(C)[C@@]34CC(=O)[C@@H](C)[C@@H](C[C@]3(C)C(=O)C[C@@]12O)O4`, the result was inactive.

Consider `C=C(C)[C@H]1CC[C@@]23CO[C@@](O)(C[C@@]12O)[C@@]1(C)C[C@H]2O[C@]13C(=O)C(O)=C2C`, for which the outcome was inactive.

In a further series the test system is Staphylococcus aureus. Briefly: Antimicrobial activity against Staphylococcus aureus ATCC25923 assessed as inhibition of microbial growth at 50 uM incubated for 24 hrs by microbroth dilution assay. The series is classed as functional, organism-based.
Details: not given
On the technique in general: In broth dilution the organism is exposed to a series of concentrations in liquid medium.
As for `C=C(CO)[C@H]1CC[C@@]2(C)C1=CC(=O)[C@@]1(C)C[C@H]3O[C@@]21CC(=O)[C@H]3C`, the outcome was inactive.

With `C=C(C)[C@H]1CC[C@]2(C)[C@@]34C[C@@H](O)[C@@H](C)[C@@H](C[C@]3(C)C(=O)C[C@@]12O)O4`, the result was inactive.

As for `C=C(C)[C@H]1CC[C@]2(C)C3=CC(=O)C(C)=CC[C@]3(C)C(=O)C[C@@]12O`, the result was inactive.

As for `C=C(C)[C@H]1CC[C@@]23CO[C@@]4(O)C(=O)[C@@H](C)CC[C@](C)(C(=O)C[C@@]12O)[C@@]34O`, the outcome was inactive.

Consider `C=C(C)[C@H]1[C@H](O)C[C@]2(C)[C@@]34CC(=O)[C@@H](C)[C@@H](C[C@]3(C)C(=O)C[C@@]12O)O4`, for which the outcome was inactive.

In the case of `C=C(C)[C@H]1CC[C@@]23CO[C@@](O)(C[C@@]12O)[C@@]1(C)C[C@H]2O[C@]13C(=O)C(O)=C2C`, the result was inactive.

Tested on in the next series: not listed separately
Nature of the series: Cytotoxicity against male BALB/c mouse Splenocyte cells incubated for 48 hrs by CCK-8 assay. The class given is toxicity, cell-based. To be noted: splenocytes.
In the case of `C=C(CO)[C@H]1CC[C@@]2(C)C1=CC(=O)[C@@]1(C)C[C@H]3O[C@@]21CC(=O)[C@H]3C`, the CC50 at 48 h is over 50 µM.

A further series relates to A549. Briefly: Cytotoxicity against human A549 cells assessed as cell growth inhibition at 50 uM incubated for 48 hrs by CCK-8 assay. The class given is functional, cell-based.
Details: not given
Take `C=C(CO)[C@H]1CC[C@@]2(C)C1=CC(=O)[C@@]1(C)C[C@H]3O[C@@]21CC(=O)[C@H]3C`: the result was inactive.

Take `C=C(C)[C@H]1CC[C@]2(C)[C@@]34C[C@@H](O)[C@@H](C)[C@@H](C[C@]3(C)C(=O)C[C@@]12O)O4`: the outcome was inactive.

`C=C(C)[C@H]1CC[C@]2(C)C3=CC(=O)C(C)=CC[C@]3(C)C(=O)C[C@@]12O`: the result was inactive.

Consider `C=C(C)[C@H]1CC[C@@]23CO[C@@]4(O)C(=O)[C@@H](C)CC[C@](C)(C(=O)C[C@@]12O)[C@@]34O`, for which the outcome was inactive.

For `C=C(C)[C@H]1[C@H](O)C[C@]2(C)[C@@]34CC(=O)[C@@H](C)[C@@H](C[C@]3(C)C(=O)C[C@@]12O)O4`, the outcome was inactive.

On to `C=C(C)[C@H]1CC[C@@]23CO[C@@](O)(C[C@@]12O)[C@@]1(C)C[C@H]2O[C@]13C(=O)C(O)=C2C`, for which the result was inactive.

For another series, the system named is Escherichia coli. Briefly: Antimicrobial activity against Escherichia coli ATCC35218 assessed as inhibition of microbial growth at 50 uM incubated for 24 hrs by microbroth dilution assay. The series is classed as functional, organism-based.
Details: not given
For `C=C(CO)[C@H]1CC[C@@]2(C)C1=CC(=O)[C@@]1(C)C[C@H]3O[C@@]21CC(=O)[C@H]3C`, the result was inactive.

As to `C=C(C)[C@H]1CC[C@]2(C)[C@@]34C[C@@H](O)[C@@H](C)[C@@H](C[C@]3(C)C(=O)C[C@@]12O)O4`, the outcome was inactive.

Turning to `C=C(C)[C@H]1CC[C@]2(C)C3=CC(=O)C(C)=CC[C@]3(C)C(=O)C[C@@]12O`, the result was inactive.

As for `C=C(C)[C@H]1CC[C@@]23CO[C@@]4(O)C(=O)[C@@H](C)CC[C@](C)(C(=O)C[C@@]12O)[C@@]34O`, the outcome was inactive.

`C=C(C)[C@H]1[C@H](O)C[C@]2(C)[C@@]34CC(=O)[C@@H](C)[C@@H](C[C@]3(C)C(=O)C[C@@]12O)O4`: the outcome was inactive.

Turning to `C=C(C)[C@H]1CC[C@@]23CO[C@@](O)(C[C@@]12O)[C@@]1(C)C[C@H]2O[C@]13C(=O)C(O)=C2C`, the outcome was inactive.

A further series deals with HepG2. Nature of the series: Cytotoxicity against human HepG2 cells assessed as cell growth inhibition at 50 uM incubated for 48 hrs by CCK-8 assay. The series is classed as functional, cell-based.
Details: not given
As for `C=C(CO)[C@H]1CC[C@@]2(C)C1=CC(=O)[C@@]1(C)C[C@H]3O[C@@]21CC(=O)[C@H]3C`, the outcome was inactive.

Consider `C=C(C)[C@H]1CC[C@]2(C)[C@@]34C[C@@H](O)[C@@H](C)[C@@H](C[C@]3(C)C(=O)C[C@@]12O)O4`, for which the result was inactive.

Take `C=C(C)[C@H]1CC[C@]2(C)C3=CC(=O)C(C)=CC[C@]3(C)C(=O)C[C@@]12O`: the outcome was inactive.

Turning to `C=C(C)[C@H]1CC[C@@]23CO[C@@]4(O)C(=O)[C@@H](C)CC[C@](C)(C(=O)C[C@@]12O)[C@@]34O`, the outcome was inactive.

Take `C=C(C)[C@H]1[C@H](O)C[C@]2(C)[C@@]34CC(=O)[C@@H](C)[C@@H](C[C@]3(C)C(=O)C[C@@]12O)O4`: the outcome was inactive.

With `C=C(C)[C@H]1CC[C@@]23CO[C@@](O)(C[C@@]12O)[C@@]1(C)C[C@H]2O[C@]13C(=O)C(O)=C2C`, the result was inactive.

Tested on in another series: not listed separately
Briefly: Selectivity index, ratio of CC50 for cytotoxicity against male BALB/c mouse Splenocyte cells to IC50 for immunosuppressive activity in male BALB/c mouse splenocyte assessed as reduction in LPS-induced B-cell proliferation. To be noted: splenocytes, read-out: Ratio CC50/IC50. The series is classed as toxicity, cell-based.
In the case of `C=C(CO)[C@H]1CC[C@@]2(C)C1=CC(=O)[C@@]1(C)C[C@H]3O[C@@]21CC(=O)[C@H]3C`, the selectivity ratio was over 6.3.

A further series has as its system Splenocyte. Nature of the series: Immunosuppressive activity in male BALB/c mouse splenocyte assessed as reduction in ConA-induced T-cell proliferation incubated for 48 hrs by CCK-8 assay. The series is classed as functional, cell-based.
Details: not given
Take `C=C(CO)[C@H]1CC[C@@]2(C)C1=CC(=O)[C@@]1(C)C[C@H]3O[C@@]21CC(=O)[C@H]3C`: the IC50 worked out at 20 µM.

In another series the test system is HT-29. Briefly: Cytotoxicity against human HT-29 cells assessed as cell growth inhibition at 50 uM incubated for 48 hrs by CCK-8 assay. The class given is functional, cell-based.
Details: not given
`C=C(CO)[C@H]1CC[C@@]2(C)C1=CC(=O)[C@@]1(C)C[C@H]3O[C@@]21CC(=O)[C@H]3C`: the outcome was inactive.

On to `C=C(C)[C@H]1CC[C@]2(C)[C@@]34C[C@@H](O)[C@@H](C)[C@@H](C[C@]3(C)C(=O)C[C@@]12O)O4`, for which the result was inactive.

For `C=C(C)[C@H]1CC[C@]2(C)C3=CC(=O)C(C)=CC[C@]3(C)C(=O)C[C@@]12O`, the outcome was inactive.

Regarding `C=C(C)[C@H]1CC[C@@]23CO[C@@]4(O)C(=O)[C@@H](C)CC[C@](C)(C(=O)C[C@@]12O)[C@@]34O`, the result was inactive.

For `C=C(C)[C@H]1[C@H](O)C[C@]2(C)[C@@]34CC(=O)[C@@H](C)[C@@H](C[C@]3(C)C(=O)C[C@@]12O)O4`, the outcome was inactive.

For the compound `C=C(C)[C@H]1CC[C@@]23CO[C@@](O)(C[C@@]12O)[C@@]1(C)C[C@H]2O[C@]13C(=O)C(O)=C2C`, the result was inactive.

In a further series the test system is Splenocyte. Briefly: Immunosuppressive activity in male BALB/c mouse splenocyte assessed as reduction in LPS-induced B-cell proliferation incubated for 48 hrs by CCK-8 assay. The class given is functional, cell-based.
Details: not given
As for `C=C(CO)[C@H]1CC[C@@]2(C)C1=CC(=O)[C@@]1(C)C[C@H]3O[C@@]21CC(=O)[C@H]3C`, the IC50 was found to be 7.9 µM.

The subject of another series is HeLa. Nature of the series: Cytotoxicity against human HeLa cells assessed as cell growth inhibition at 50 uM incubated for 48 hrs by CCK-8 assay. The class given is functional, cell-based.
Details: not given
Regarding `C=C(CO)[C@H]1CC[C@@]2(C)C1=CC(=O)[C@@]1(C)C[C@H]3O[C@@]21CC(=O)[C@H]3C`, the result was inactive.

`C=C(C)[C@H]1CC[C@]2(C)[C@@]34C[C@@H](O)[C@@H](C)[C@@H](C[C@]3(C)C(=O)C[C@@]12O)O4`: the outcome was inactive.

Turning to `C=C(C)[C@H]1CC[C@]2(C)C3=CC(=O)C(C)=CC[C@]3(C)C(=O)C[C@@]12O`, the result was inactive.

For the compound `C=C(C)[C@H]1CC[C@@]23CO[C@@]4(O)C(=O)[C@@H](C)CC[C@](C)(C(=O)C[C@@]12O)[C@@]34O`, the outcome was inactive.

Take `C=C(C)[C@H]1[C@H](O)C[C@]2(C)[C@@]34CC(=O)[C@@H](C)[C@@H](C[C@]3(C)C(=O)C[C@@]12O)O4`: the outcome was inactive.

Consider `C=C(C)[C@H]1CC[C@@]23CO[C@@](O)(C[C@@]12O)[C@@]1(C)C[C@H]2O[C@]13C(=O)C(O)=C2C`, for which the result was inactive.

Tested on in the next series: not listed separately
Nature of the series: Selectivity index, ratio of CC50 for cytotoxicity against male BALB/c mouse Splenocyte cells to IC50 for immunosuppressive activity in male BALB/c mouse splenocyte assessed as reduction in ConA-induced T-cell proliferation. The series is classed as toxicity, cell-based. To be noted: splenocytes, read-out: Ratio CC50/IC50.
For `C=C(CO)[C@H]1CC[C@@]2(C)C1=CC(=O)[C@@]1(C)C[C@H]3O[C@@]21CC(=O)[C@H]3C`, the selectivity ratio was over 2.5.

The values above are taken from ChEMBL document CHEMBL6127113, “Penicamins A-L, Polyoxygenated Diterpenes from Penicillium camemberti JSB-7212” (J Nat Prod, 2024).
